Converted amounts (≈) assume the structure as drawn.
Experiments:
Canis familiaris = species: Canis familiaris; details: dog, in vivo, iv
in vivo = details: callithrix, serum, iv
Description: Serum T1/2 in marmosets (IV dose)

Pseudomonas aeruginosa [1] = assay: microbe, parasite or virus in culture
Description: Compound was tested for antimicrobial activity against Pseudomonas aeruginosa PU21 strain

Staphylococcus aureus [2] = assay: microbe, parasite or virus in culture
Description: Compound was tested for antimicrobial activity against Staphylococcus aureus Oxford strain

Enterobacter cloacae [3] = assay: microbe, parasite or virus in culture
Description: Compound was tested for antimicrobial activity against Enterobacter cloacae constitutive derepressed type I beta-lactamase producer (P99+) strain

Pseudomonas aeruginosa [4] = assay: microbe, parasite or virus in culture; remark: listed apart in the source
Description: Compound was tested for antimicrobial activity against Pseudomonas aeruginosa constitutive derepressed type I beta-lactamase producer (18SH) strain

Staphylococcus aureus [5] = assay: microbe, parasite or virus in culture; remark: listed apart in the source
Description: Compound was tested for antimicrobial activity against Staphylococcus aureus penicillin sensitive Staphylococcus aureus (147N) strain

Enterobacter cloacae [6] = assay: microbe, parasite or virus in culture; remark: listed apart in the source
Description: Compound was tested for antimicrobial activity against Enterobacter cloacae inducible type I beta-lactamase producer (P99-) strain

Escherichia coli [7] = assay: microbe, parasite or virus in culture
Description: Compound was tested for antimicrobial activity against Escherichia coli DC2 strain (permeability mutant)

Escherichia coli [8] = assay: microbe, parasite or virus in culture; remark: listed apart in the source
Description: Compound was tested for antimicrobial activity against Escherichia coli DC0 strain (parent organism)

[9] = Urinary recovery in marmosets (IV dose); format: ADME, organism-based; details: callithrix, urine, read-out: Recovery
Homo sapiens = species: Homo sapiens; assay: Compound was tested for serum protein binding in human blood; format: functional

Description for physchem: Dissociation constant (pKa)

Structure (SMILES)	AUC (Canis familiaris) [mg/h/L]	half-life (in vivo) [h]	pKa (physchem)	further results
CCn1cc(C(=O)NCC2=C(C(=O)O)N3C(=O)[C@@H](NC(=O)/C(=N\OC(C)(C)C(=O)O)c4csc(N)n4)[C@H]3SC2)c(=O)c2cc(O)c(O)nc21	137.3	2.8	5.6	–
CC(C)(O/N=C(\C(=O)N[C@@H]1C(=O)N2C(C(=O)O)=C(CNC(=O)Nc3cc(O)c(O)c(Br)c3)CS[C@H]12)c1csc(N)n1)C(=O)O	122.3	2.8	–	–
CC(C)(O/N=C(\C(=O)N[C@@H]1C(=O)N2C(C(=O)O)=C(CNC(=O)c3cc(O)c(O)cc3Br)CS[C@H]12)c1csc(N)n1)C(=O)O	13.4	0.9	8.1	–
CCN(CC1=C(C(=O)O)N2C(=O)[C@@H](NC(=O)/C(=N\OC(C)(C)C(=O)O)c3csc(N)n3)[C@H]2SC1)C(=O)c1cc(O)c(O)c(Br)c1	21.8	1	7.3	MIC (Pseudomonas aeruginosa [1]): 0.03 µg/mL (≈ 0.0412 µM); MIC (Staphylococcus aureus [2]): 32 µg/mL (≈ 44 µM); MIC (Enterobacter cloacae [3]): 1 µg/mL (≈ 1.37 µM); MIC (Pseudomonas aeruginosa [4]): 0.06 µg/mL (≈ 0.0825 µM); MIC (Staphylococcus aureus [5]): 32 µg/mL (≈ 44 µM); MIC (Enterobacter cloacae [6]): 0.25 µg/mL (≈ 0.344 µM); MIC (Escherichia coli [7]): 0.015 µg/mL (≈ 0.0206 µM); MIC (Escherichia coli [8]): 0.015 µg/mL (≈ 0.0206 µM)
CC(C)(O/N=C(\C(=O)N[C@@H]1C(=O)N2C(C(=O)O)=C(CNC(=O)c3cc(O)c(O)cc3F)CS[C@H]12)c1csc(N)n1)C(=O)O	78	1.6	7.8	–
CCO/N=C(\C(=O)N[C@@H]1C(=O)N2C(C(=O)O)=C(CNC(=O)c3cc(Cl)c(O)c(O)c3Cl)CS[C@H]12)c1csc(N)n1	54.5	1.4	6.9	–
CCn1nc(C(=O)NCC2=C(C(=O)O)N3C(=O)[C@@H](NC(=O)/C(=N\OC(C)(C)C(=O)O)c4csc(N)n4)[C@H]3SC2)c(=O)c2cc(O)c(O)cc21	129.8	2.2	6.5	dose excreted [9]: 26.9%; Activity (Homo sapiens): 97.8%
CCN(CC1=C(C(=O)O)N2C(=O)[C@@H](NC(=O)/C(=N\OC(C)(C)C(=O)O)c3csc(N)n3)[C@H]2SC1)C(=O)c1cc(O)c(O)c(Cl)c1	16.4	0.9	7.4	–
CCN(CC1=C(C(=O)O)N2C(=O)[C@@H](NC(=O)/C(=N\OC(C)(C)C(=O)O)c3csc(N)n3)[C@H]2SC1)C(=O)c1cc(O)c(O)c(C#N)c1	41	1	5.8	–
CCN(CC1=C(C(=O)O)N2C(=O)[C@@H](NC(=O)/C(=N\OC(C)(C)C(=O)O)c3csc(N)n3)[C@H]2SC1)C(=O)c1cc(O)c(O)c([N+](=O)[O-])c1	49.2	1.6	5.8	–
CC(C)(O/N=C(\C(=O)N[C@@H]1C(=O)N2C(C(=O)O)=C(CNC(=O)c3cc(O)c(O)c(F)c3)CS[C@H]12)c1csc(N)n1)C(=O)O	116.8	3.5	7.45	–
CC(C)(O/N=C(\C(=O)N[C@@H]1C(=O)N2C(C(=O)O)=C(CNC(=O)c3ccc(O)c(O)c3Cl)CS[C@H]12)c1csc(N)n1)C(=O)O	131	2.9	7.65	–
CC(C)(O/N=C(\C(=O)N[C@@H]1C(=O)N2C(C(=O)O)=C(CNCc3cc(O)c(O)c(Br)c3)CS[C@H]12)c1csc(N)n1)C(=O)O	4.4	0.7	–	–
CCO/N=C(\C(=O)N[C@@H]1C(=O)N2C(C(=O)O)=C(CNC(=O)c3cc(O)c(O)cc3Br)CS[C@H]12)c1csc(N)n1	2	0.35	6.9	–
CCO/N=C(\C(=O)N[C@@H]1C(=O)N2C(C(=O)O)=C(CNC(=O)c3cc(O)c(O)c(Br)c3)CS[C@H]12)c1csc(N)n1	17	0.7	6.9	MIC (Pseudomonas aeruginosa [1]): 0.06 µg/mL (≈ 0.0935 µM); MIC (Staphylococcus aureus [2]): 2 µg/mL (≈ 3.12 µM); MIC (Enterobacter cloacae [3]): 8 µg/mL (≈ 12.5 µM); MIC (Pseudomonas aeruginosa [4]): 4 µg/mL (≈ 6.24 µM); MIC (Staphylococcus aureus [5]): 4 µg/mL (≈ 6.24 µM); MIC (Enterobacter cloacae [6]): 0.015 µg/mL (≈ 0.0234 µM); MIC (Escherichia coli [8]): < 0.008 µg/mL
CC(C)(O/N=C(\C(=O)N[C@@H]1C(=O)N2C(C(=O)O)=C(/C=C/c3cc(O)c(O)c(Br)c3)CS[C@H]12)c1csc(N)n1)C(=O)O	61.6	1.5	7.7	–

Structure (SMILES)	AUC (Canis familiaris) [mg/h/L]	half-life (in vivo) [h]	pKa (physchem)	further results
CC(C)(O/N=C(\C(=O)N[C@@H]1C(=O)N2C(C(=O)O)=C(CNC(=O)/C=C/c3cc(O)c(O)cc3Br)CS[C@H]12)c1csc(N)n1)C(=O)O	24.2	1	–	–
CC(C)(O/N=C(\C(=O)N[C@@H]1C(=O)N2C(C(=O)O)=C(CNC(=O)c3cc4ccc(O)c(O)c4oc3=O)CS[C@H]12)c1csc(N)n1)C(=O)O	243.9	3.95	–	dose excreted [9]: 6.9%; Activity (Homo sapiens): 99.6%
CCOC(=O)c1nc2cc(O)c(O)cc2nc1C(=O)NCC1=C(C(=O)O)N2C(=O)[C@@H](NC(=O)/C(=N\OC(C)(C)C(=O)O)c3csc(N)n3)[C@H]2SC1	287	4.6	6	–
CCO/N=C(\C(=O)N[C@@H]1C(=O)N2C(C(=O)O)=C(CNC(=O)c3ccc(O)c(O)c3)CS[C@H]12)c1csc(N)n1	4.3	0.8	8.5	MIC (Pseudomonas aeruginosa [1]): 0.25 µg/mL (≈ 0.444 µM); MIC (Staphylococcus aureus [2]): 2 µg/mL (≈ 3.56 µM); MIC (Enterobacter cloacae [3]): 64 µg/mL (≈ 114 µM); MIC (Pseudomonas aeruginosa [4]): 64 µg/mL (≈ 114 µM); MIC (Staphylococcus aureus [5]): 4 µg/mL (≈ 7.11 µM); MIC (Enterobacter cloacae [6]): 0.5 µg/mL (≈ 0.889 µM); MIC (Escherichia coli [7]): 0.08 µg/mL (≈ 0.142 µM); MIC (Escherichia coli [8]): 0.06 µg/mL (≈ 0.107 µM)
CC(C)(O/N=C(\C(=O)N[C@@H]1C(=O)N2C(C(=O)O)=C(COC(=O)c3cc(O)c(O)c(Br)c3)CS[C@H]12)c1csc(N)n1)C(=O)O	67.7	1.7	6.5	–
CO/N=C(\C(=O)N[C@@H]1C(=O)N2C(C(=O)O)=C(COC(C)=O)CS[C@H]12)c1csc(N)n1 [CEFOTAXIME]	46.7	0.5	–	–
CC(C)(O/N=C(\C(=O)N[C@@H]1C(=O)N2C(C(=O)O)=C(CNC(=O)Cc3cc(O)c(O)cc3Br)CS[C@H]12)c1csc(N)n1)C(=O)O	1.6	–	–	–
CC(C)(O/N=C(\C(=O)N[C@@H]1C(=O)N2C(C(=O)O)=C(CNC(=O)c3cc(O)c(O)c([N+](=O)[O-])c3)CS[C@H]12)c1csc(N)n1)C(=O)O	181.7	2.9	5.5	dose excreted [9]: 47.3%; Activity (Homo sapiens): 97.5%
CCn1cc(C(=O)NCC2=C(C(=O)O)N3C(=O)[C@@H](NC(=O)/C(=N\OC(C)(C)C(=O)O)c4csc(N)n4)[C@H]3SC2)c(=O)c2c(Cl)c(O)c(O)cc21	645.7	5.7	7	–
CCO/N=C(\C(=O)N[C@@H]1C(=O)N2C(C(=O)O)=C(CNC(=O)c3cc(O)c(O)c([N+](=O)[O-])c3)CS[C@H]12)c1csc(N)n1	48.9	0.8	5.5	–
CC(C)(O/N=C(\C(=O)N[C@@H]1C(=O)N2C(C(=O)O)=C(CNC(=O)c3cc(O)c(O)c(O)c3)CS[C@H]12)c1csc(N)n1)C(=O)O	51.9	0.9	8.35	MIC (Pseudomonas aeruginosa [1]): 0.9 µg/mL (≈ 1.41 µM); MIC (Pseudomonas aeruginosa [4]): 8.1 µg/mL (≈ 12.7 µM)
CCO/N=C(\C(=O)N[C@@H]1C(=O)N2C(C(=O)O)=C(CNC(=O)c3cc(O)c(O)c(C#N)c3)CS[C@H]12)c1csc(N)n1	107	1.2	5.5	–
CCO/N=C(\C(=O)N[C@@H]1C(=O)N2C(C(=O)O)=C(CNC(=O)c3cc(O)c(O)c(F)c3)CS[C@H]12)c1csc(N)n1	25	0.65	7.4	–
CCN(CC1=C(C(=O)O)N2C(=O)[C@@H](NC(=O)/C(=N\OC(C)(C)C(=O)O)c3csc(N)n3)[C@H]2SC1)C(=O)c1cc(O)c(O)cc1F	7.6	0.6	8.25	–
CCN(CC1=C(C(=O)O)N2C(=O)[C@@H](NC(=O)/C(=N\OC(C)(C)C(=O)O)c3csc(N)n3)[C@H]2SC1)C(=O)c1cc(O)c(O)c(F)c1	10.9	0.5	7.85	–
CCO/N=C(\C(=O)N[C@@H]1C(=O)N2C(C(=O)O)=C(CNC(=O)c3cc(O)c(O)c(Cl)c3)CS[C@H]12)c1csc(N)n1	57.6	1.3	6.9	–
